Tests used:
Format in all cases: cell-based
Conditions in all cases: reduction of AT-mediated invasion, losartan 2 uM
[1] = system: BT549 breast cancer cells; experiment: Matrigel cell invasion assay, BT549
578T breast cancer cells = experiment: Matrigel cell invasion assay, 578T
[2] = system: MCF-7 breast cancer cells; experiment: Matrigel cell invasion assay, MCF7
[3] = system: H16N2 immortalized benign breast epithelial cell line; experiment: Matrigel cell invasion assay, H16N2
[4] = system: DU145 prostate cancer cells; experiment: Matrigel cell invasion assay, DU145

CCCCc1nc(Cl)c(CO)n1Cc1ccc(-c2ccccc2-c2nn[nH]n2)cc1 [Lo, Losartan]
Lo (2 uM) % Red. [1]: 72.4%
Lo (2 uM) % Red. ([1]; listed as losartan): 72%
Lo (2 uM) % Red. (578T breast cancer cells): 67.9%
Lo (2 uM) % Red. (578T breast cancer cells; listed as losartan): 68%
Lo (2 uM) % Red. [2]: 56.7%
Lo (2 uM) % Red. [3]: 16.7%
Lo (2 uM) % Red. [4]: 35.0%

Source: patent US20080207714A1, “Diagnosis And Treatment Of Breast Cancer” (THE REGENTS OF THE UNIVERSITY OF MICHIGAN, priority 2006, published 2008)
